Values of other authors, collected in patent US7612060B2, “Triazoles and methods of use” (Amgen Inc., priority 2004, dated 2009).
Where no end group is shown, it is not given here.

Details: reported

With RPPGFSPFR [BK, Bradykinin] as the sequence, how does the “half-life of BK in plasma” value read?
Its value is “approximately 17 seconds”.
